# Reference: patent US20200354327A1, “COMPOUND HAVING STAT3 INHIBITORY ACTIVITY AND USE THEREOF” (CYTUS H&B CO., LTD., priority 2017, published 2020)
# Target: STAT3 (Homo sapiens, UniProt P40763)
# Assay: Western blot of the 46 Table 1 compounds in Hodgkin lymphoma cell lines L540 and HDLM-2
# Assay type: cell-based
# Parameters: endogenous in cells; host or cells: L540, HDLM-2, U87-MG, MDA-MB-231, further human glioblastoma and breast cancer lines
# Conditions: L540 and HDLM-2
# Method: The human cancer cell lines used in the experiment were U87-MG (human malignant glioblastoma) and MDA-MB-231 (human malignant breast cancer) cell lines, and various kinds of human-derived blood and solid cancer cells including these human cancer cell lines were cultured as previously described (Jung J E, et al. FASEB J. 19, 1296-1298 (2005)). The human Hodgkin lymphoma cancer cell lines L540 and HLDM-2 used in the experiment were obtained from the German Collection of Microorganism and Cell Cultures (DSMZ, Germany) and cultured using RPMI 1640 medium containing 20% FBS in a 5% CO2 incubator at a temperature of 37° C.
# Western blot analysis was performed (Jung J E, et al. FASEB J. 19, 1296-1298 (2005)). The cells were washed two times with PBS and suspended in the lysate (50 mM Tris-HCl, pH 7.4, 350 mM NaCl, 1% Triton X-100, 0.5% Nonidet P-40, 10% glycerol, 0.1% SDS, 1 mM EDTA, 1 mM EGTA, 1 mM Na3VO4, 1 mM PMSF, protease and phosphorylation inhibitor) and the cell membrane and nuclear membrane were crushed to lyse the cells. The insoluble protein fraction was removed by centrifugation, and the supernatant was mixed with SDS electrophoresis buffer and electrophoresis (SDS-PAGE) was performed to detect the protein with the desired antibody and to confirm the protein expression level.
# STAT3, sequence (P40763 whole entry): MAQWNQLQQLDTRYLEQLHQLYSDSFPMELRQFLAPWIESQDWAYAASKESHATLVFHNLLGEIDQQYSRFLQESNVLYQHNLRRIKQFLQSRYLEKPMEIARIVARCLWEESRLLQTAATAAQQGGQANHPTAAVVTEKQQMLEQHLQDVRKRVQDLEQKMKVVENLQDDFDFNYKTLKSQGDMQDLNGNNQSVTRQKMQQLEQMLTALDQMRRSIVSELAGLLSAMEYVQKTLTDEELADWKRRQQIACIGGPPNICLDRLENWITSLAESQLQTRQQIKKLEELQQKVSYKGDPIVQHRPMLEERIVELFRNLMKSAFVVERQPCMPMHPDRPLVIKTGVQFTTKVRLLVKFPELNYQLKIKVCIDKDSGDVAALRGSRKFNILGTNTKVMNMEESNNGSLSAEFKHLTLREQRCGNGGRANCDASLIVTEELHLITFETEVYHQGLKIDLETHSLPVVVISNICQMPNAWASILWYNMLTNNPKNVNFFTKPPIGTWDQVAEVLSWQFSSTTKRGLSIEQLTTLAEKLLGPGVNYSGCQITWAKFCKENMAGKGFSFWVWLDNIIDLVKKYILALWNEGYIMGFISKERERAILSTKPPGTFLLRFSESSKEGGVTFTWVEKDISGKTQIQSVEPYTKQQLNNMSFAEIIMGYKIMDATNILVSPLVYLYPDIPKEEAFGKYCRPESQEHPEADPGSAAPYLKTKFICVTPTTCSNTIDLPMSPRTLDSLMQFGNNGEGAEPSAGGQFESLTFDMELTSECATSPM
row,SMILES,"STAT3 inhibitory efficacy, first screening"
1,"Cl.Cl.NCCc1nc2ccccc2c(=O)[nH]1.O [compound 1, 2-(2-aminoethyl)-4(3H)-quinazolinone dihydrochloride hydrate]",judged to exert superior STAT3 inhibitory efficacy
2,"O=S(=O)(NCCc1nc2ccccc2[nH]1)c1ccccc1 [compound 4, N-[2-(lH-benzimidazol-2-yl)ethyl]benzenesulfonamide]",judged to exert superior STAT3 inhibitory efficacy
3,"O=C1NCSC1=Cc1ccccc1O [compound 5, 5-(2-hydroxybenzylidene)-l,3-thiazolidin-4-one]",judged to exert superior STAT3 inhibitory efficacy
4,"O=S(=O)(NCc1nc2ccccc2[nH]1)c1ccccc1 [compound 6, N-(1H-benzimidazol-2-ylmethyl)benzenesulfonamide]",judged to exert superior STAT3 inhibitory efficacy
5,"O=C(O)C1Cc2c([nH]c3ccccc23)C(c2ccc(O)cc2)N1 (stereo not drawn) [compound 8, l-(4-hydroxyphenyl)-2,3,4,9-tetrahydro-lH-beta-carboline-3-carboxylic acid]",judged to exert superior STAT3 inhibitory efficacy
6,"O=C(Nc1nc(O)nc(C=Cc2ccccc2)n1)NS(=O)(=O)c1ccccc1Cl [compound 9, 2-chloro-N-({[4-hydroxy-6-(2-phenylvinyl)-l,3,5-triazin-2-yl]amino]carbonyl)benzenesulfonamide]",judged to exert superior STAT3 inhibitory efficacy
7,"O=C(O)c1cccc(NS(=O)(=O)c2cccc(C(F)(F)F)c2)c1 [compound 11, 3-({[3-(trifluoromethyl)phenyl]sulfonyl}amino)benzoic acid]",judged to exert superior STAT3 inhibitory efficacy
8,"O=S(=O)(NCc1nc2ccccc2[nH]1)c1ccc(Cl)cc1 [compound 14, N-(1H-benzimidazol-2-ylmethyl)-4-chlorobenzenesulfonamide]",judged to exert superior STAT3 inhibitory efficacy
9,"CC1CN(Cc2nc3c([nH]2)c(=O)[nH]c(=O)n3C)CC(C)O1 (centres unmarked) [compound 16, 8-[(2,6-dimethyl-4-morpholinyl)methyl]-3-methyl-3,7-dihydro-lH-purine-2,6-dione]",judged to exert superior STAT3 inhibitory efficacy
10,"CC(CNCc1nc2ccccc2[nH]1)c1ccccc1 (centres unmarked) [compound 18, (1H-benzimidazol-2-ylmethyl)(2-phenylpropyl)amine]",judged to exert superior STAT3 inhibitory efficacy
11,"CCS(=O)(=O)Nc1cccc(C2=NN(S(C)(=O)=O)C(c3cccc(F)c3)C2)c1 (stereo not drawn) [compound 19, N-{3-[5-(3-fluorophenyl)-l-(methylsulfonyl)-4,5-dihydro-lH-pyrazol-3-yl]phenyl}ethanesulfonamide]",judged to exert superior STAT3 inhibitory efficacy
12,"O=S(=O)(NCc1nc2ccccc2[nH]1)c1ccc(Cl)c(Cl)c1 [compound 20, N-(lH-benzimidazol-2-ylmethyl)-3,4-dichlorobenzenesulfonamide]",judged to exert superior STAT3 inhibitory efficacy
13,"O=C(Nc1ccc(C(=O)N2CCNC2=O)cc1)c1cccs1 [compound 21, N-{4-[(2-oxo-l-imidazolidinyl)carbonyl]phenyl}-2-thiophenecarboxamide]",judged to exert superior STAT3 inhibitory efficacy
14,"O=C(Nc1ccc(C(=O)N2CCNC2=O)cc1)c1ccccc1 [compound 22, N-{4-[(2-oxo-l-imidazolidinyl)carbonyl]phenyl}benzamide]",judged to exert superior STAT3 inhibitory efficacy
15,"O=C(COc1ccc(Cl)cc1S(=O)(=O)NC1CC1)N1CCOCC1 [compound 23, 5-chloro-N-cyclopropyl-2-[2-(4-morpholinyl)-2-oxoethoxy]benzenesulfonamide]",judged to exert superior STAT3 inhibitory efficacy
16,"NC(=O)c1cc(S(=O)(=O)Nc2ccc(O)cc2)cs1 [compound 24, 4-{[(4-hydroxyphenyl)amino]sulfonyl}-2-thiophenecarboxamide]",judged to exert superior STAT3 inhibitory efficacy
17,"O=C1CN(C(=O)C=Cc2ccccc2)CCN1 [compound 27, 4-cinnamoyl-2-piperazinone]",judged to exert superior STAT3 inhibitory efficacy

row,SMILES,"STAT3 inhibitory efficacy, first screening"
1,"Cc1ccccc1NC(=O)c1cccc(NS(C)(=O)=O)c1 [compound 28, N-(2-methylphenyl)-3-((methylsulfonyl)amino]benzamide]",judged to exert superior STAT3 inhibitory efficacy
2,"O=C(Nc1ccc(F)cc1)Nc1cccc(C(=O)NCc2ccccc2)c1 [compound 29, N-benzyl-3-({[(4-fluorophenyl)amino]carbonyl}amino)benzamide]",judged to exert superior STAT3 inhibitory efficacy
3,"CC(C)(C)NC(=O)c1cccc(NC(=O)Nc2ccccc2)c1 [compound 30, 3-[(anilinocarbonyl)amino]-N-(tert-butyl)benzamide]",judged to exert superior STAT3 inhibitory efficacy
4,"Cc1ccc(S(=O)(=O)NCCc2nc3ccccc3[nH]2)cc1 [compound 31, N-[2-(1H-benzimidazol-2-yl)ethyl]-4-methylbenzenesulfonamide]",judged to exert superior STAT3 inhibitory efficacy
5,"Cc1ccc(S(=O)(=O)NCc2nc3ccccc3[nH]2)cc1 [compound 32, N-(1H-benzimidazol-2-ylmethyl)-4-methylbenzenesulfonamide]",judged to exert superior STAT3 inhibitory efficacy
6,"CS(=O)(=O)Nc1cccc(C(=O)NCc2ccncc2)c1 [compound 33, 3-[(methylsulfonyl)amino]-N-(4-pyridinylmethyl)benzamide]",judged to exert superior STAT3 inhibitory efficacy
7,"Brc1cc2c(cc1CSc1nc3cccnc3[nH]1)OCO2 [compound 34, 2-{[(6-bromo-l,3-benzodioxol-5-yl)methyl]thio}-3H-imidazo[4,5-b]pyridine]",judged to exert superior STAT3 inhibitory efficacy
8,"O=C(O)[C@@H]1CCCN1S(=O)(=O)c1ccc2[nH]c(=O)c(=O)[nH]c2c1 [compound 35, l-[(2,3-dioxo-l,2,3,4-tetrahydro-6-quinoxalinyl)sulfonyl]proline]",judged to exert superior STAT3 inhibitory efficacy
9,"CCc1ccc(OC)c(S(=O)(=O)Nc2cccc(O)c2)c1 [compound 36, 5-ethyl-N-(3-hydroxyphenyl)-2-methoxybenzenesulfonamide]",judged to exert superior STAT3 inhibitory efficacy
10,"OCCCNc1nc(Nc2cccc(O)c2)nc2ccccc12 [compound 37, 3-({4-[(3-hydroxypropyl)amino]-2-quinazolinyl}amino)phenol]",judged to exert superior STAT3 inhibitory efficacy
11,"O=C(Nc1ccc(Cc2ccc(NC(=O)C(c3ccccc3)c3ccccc3)c(O)c2)cc1O)C(c1ccccc1)c1ccccc1 [compound 38, N,N′-[methylenebis(2-hydroxy-4,1-phenylene)]bis(2,2-diphenylacetamide)]",judged to exert superior STAT3 inhibitory efficacy
12,"COc1ccccc1C(=O)Nc1ccc(C(=O)N2CCNC2=O)cc1 [compound 41, 2-methoxy-N-{4-[(2-oxo-l-imidazolidinyl)carbonyl]phenyl}benzamide]",judged to exert superior STAT3 inhibitory efficacy
13,"Cc1[nH]c2ccc(-c3n[nH]c(=S)n3C)cc2c1C [compound 42, 5-(2,3-dimethyl-lH-indol-5-yl)-4-methyl-2,4-dihydro-3H-l,2,4-triazole-3-thione]",judged to exert superior STAT3 inhibitory efficacy
14,"O=C(Nc1cccnc1)c1cccc(NS(=O)(=O)c2ccccc2)c1 [compound 43, 3-[(phenylsulfonyl)amino]-N-3-pyridinylbenzamide]",judged to exert superior STAT3 inhibitory efficacy
15,"CS(=O)(=O)Nc1cccc(C(=O)Nc2ccccc2C(=O)NCc2cccnc2)c1 [compound 44, 2-({3-[(methylsulfonyl)amino]benzoyl]amino)-N-(3-pyridinylmethyl)benzamide]",judged to exert superior STAT3 inhibitory efficacy
16,"O=C(NCC1CCCO1)C1CC(=O)N(c2ccc(O)cc2)C1 (centres unmarked) [compound 45, 1-(4-hydroxyphenyl)-5-oxo-N-(tetrahydro-2-furanylmethyl)-3-pyrrolidinecarboxamide]",judged to exert superior STAT3 inhibitory efficacy

# Same assay, conditions: L540 and HDLM-2, 50 μM
row,SMILES,"STAT3 inhibitory efficacy, secondary screening"
1,"OCCCNc1nc(Nc2cccc(O)c2)nc2ccccc12 [compound 37, 3-({4-[(3-hydroxypropyl)amino]-2-quinazolinyl}amino)phenol]",judged to exert superior STAT3 inhibitory efficacy

# Same assay, conditions: L540 and HDLM-2, various concentrations
row,SMILES,phosphorylation of STAT tyrosine 705
1,"OCCCNc1nc(Nc2cccc(O)c2)nc2ccccc12 [compound 37, 3-({4-[(3-hydroxypropyl)amino]-2-quinazolinyl}amino)phenol]",significantly inhibited the phosphorylation of STATdml tyrosine 705 in a concentration-dependent manner
